Key:
[1] = target: Ribosomal protein S6 kinase alpha-3 (Homo sapiens, UniProt P51812); test: Selectivity interaction (ActivX KiNativ screen (kinase selectivity in THP-1 cell lysates)) EUB0000639a RPS6KA3; assay type: subcellular; conditions: lysate, at 0.2 µM
[2] = target: Mitogen-activated protein kinase 3 (Homo sapiens, UniProt P27361); test: Selectivity interaction (KinomeScan (DiscoverX)) EUB0000595a MAPK3; conditions: at 10 µM
[3] = target: T1, Dual specificity mitogen-activated protein kinase kinase 4 (Homo sapiens) (UniProt P45985); test: Selectivity interaction (KinomeScan (DiscoverX)) EUB0000092b MAP2K4; conditions: at 10 µM
T1 sequence (whole entry): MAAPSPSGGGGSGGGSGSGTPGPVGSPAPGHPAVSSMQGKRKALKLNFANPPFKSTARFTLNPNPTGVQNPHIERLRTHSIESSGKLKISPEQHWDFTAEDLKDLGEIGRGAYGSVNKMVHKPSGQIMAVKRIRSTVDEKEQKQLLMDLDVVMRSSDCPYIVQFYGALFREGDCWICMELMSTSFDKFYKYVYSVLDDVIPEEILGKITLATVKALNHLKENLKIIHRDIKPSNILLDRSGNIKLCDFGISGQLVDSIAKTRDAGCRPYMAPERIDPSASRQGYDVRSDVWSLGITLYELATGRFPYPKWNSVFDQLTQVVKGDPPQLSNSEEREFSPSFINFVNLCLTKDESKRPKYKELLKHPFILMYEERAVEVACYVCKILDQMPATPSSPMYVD

[4] = target: T2, Muscarinic acetylcholine receptor M1 (Homo sapiens) (UniProt P11229); test: Selectivity interaction (Panel of kinases, GPCRs, ion channels and transporters (enzymatic assay)) EUB0000266bCl CHRM1
T2 sequence (whole entry): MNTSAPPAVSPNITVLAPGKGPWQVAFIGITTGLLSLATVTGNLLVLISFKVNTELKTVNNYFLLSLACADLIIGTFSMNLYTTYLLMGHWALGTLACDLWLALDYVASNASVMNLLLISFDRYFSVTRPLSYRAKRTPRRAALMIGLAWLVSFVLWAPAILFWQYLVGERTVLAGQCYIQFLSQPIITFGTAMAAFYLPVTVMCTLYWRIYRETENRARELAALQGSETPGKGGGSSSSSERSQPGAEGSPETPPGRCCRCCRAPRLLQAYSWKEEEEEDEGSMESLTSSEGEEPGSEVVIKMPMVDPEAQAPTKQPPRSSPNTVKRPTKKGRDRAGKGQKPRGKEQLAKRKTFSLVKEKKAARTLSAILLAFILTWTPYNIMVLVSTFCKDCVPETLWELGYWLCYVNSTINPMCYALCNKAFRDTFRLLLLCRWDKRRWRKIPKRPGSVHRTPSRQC

[5] = target: T3, Serine/threonine-protein kinase Sgk3 (Homo sapiens) (UniProt Q96BR1); test: Selectivity interaction (SelectScreen profiling (Invitrogen)) EUB0000607a SGK3; conditions: at 2 µM
T3 sequence (whole entry): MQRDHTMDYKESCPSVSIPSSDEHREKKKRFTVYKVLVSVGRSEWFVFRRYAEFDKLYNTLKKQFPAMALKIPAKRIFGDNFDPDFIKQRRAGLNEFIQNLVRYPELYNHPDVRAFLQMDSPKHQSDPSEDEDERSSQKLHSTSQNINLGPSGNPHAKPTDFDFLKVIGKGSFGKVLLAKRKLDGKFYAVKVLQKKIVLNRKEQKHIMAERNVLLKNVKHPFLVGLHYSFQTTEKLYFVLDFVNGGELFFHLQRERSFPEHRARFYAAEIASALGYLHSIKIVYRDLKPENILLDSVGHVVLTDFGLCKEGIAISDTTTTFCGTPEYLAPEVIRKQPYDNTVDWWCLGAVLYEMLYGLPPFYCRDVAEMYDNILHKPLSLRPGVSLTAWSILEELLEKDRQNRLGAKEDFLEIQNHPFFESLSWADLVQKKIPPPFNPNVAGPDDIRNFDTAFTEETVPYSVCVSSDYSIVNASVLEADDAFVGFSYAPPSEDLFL

[6] = target: T4, MAP kinase-activated protein kinase 5 (Homo sapiens) (UniProt Q8IW41); test: Selectivity interaction (Kinase panel (Z-LYTE Assay)) EUB0001632a MAPKAPK5; conditions: at 10 µM
T4 sequence (whole entry): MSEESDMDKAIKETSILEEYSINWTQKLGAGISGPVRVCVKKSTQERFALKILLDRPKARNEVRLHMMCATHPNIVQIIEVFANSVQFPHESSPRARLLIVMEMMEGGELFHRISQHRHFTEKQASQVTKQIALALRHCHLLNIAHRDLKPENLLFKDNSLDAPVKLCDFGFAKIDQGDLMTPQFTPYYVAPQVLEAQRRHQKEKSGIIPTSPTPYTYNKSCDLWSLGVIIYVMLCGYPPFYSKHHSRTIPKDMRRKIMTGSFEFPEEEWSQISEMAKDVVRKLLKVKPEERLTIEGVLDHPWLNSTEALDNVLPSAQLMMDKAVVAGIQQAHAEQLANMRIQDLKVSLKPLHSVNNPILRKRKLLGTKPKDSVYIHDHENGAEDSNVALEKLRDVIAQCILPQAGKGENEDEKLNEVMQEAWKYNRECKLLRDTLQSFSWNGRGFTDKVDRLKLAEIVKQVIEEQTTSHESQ

Mitogen-activated protein kinase 3, sequence (P27361 whole entry): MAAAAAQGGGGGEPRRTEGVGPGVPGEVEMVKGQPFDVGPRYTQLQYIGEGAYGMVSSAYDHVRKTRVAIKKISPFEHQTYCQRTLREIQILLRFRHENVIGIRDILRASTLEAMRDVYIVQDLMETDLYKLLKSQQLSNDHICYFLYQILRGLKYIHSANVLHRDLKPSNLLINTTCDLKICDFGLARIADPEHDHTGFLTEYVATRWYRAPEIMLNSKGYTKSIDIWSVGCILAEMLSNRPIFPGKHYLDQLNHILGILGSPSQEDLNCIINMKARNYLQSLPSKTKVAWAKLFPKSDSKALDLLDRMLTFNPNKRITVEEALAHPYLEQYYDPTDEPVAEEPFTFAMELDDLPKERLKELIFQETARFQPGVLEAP
Ribosomal protein S6 kinase alpha-3, sequence (P51812 whole entry): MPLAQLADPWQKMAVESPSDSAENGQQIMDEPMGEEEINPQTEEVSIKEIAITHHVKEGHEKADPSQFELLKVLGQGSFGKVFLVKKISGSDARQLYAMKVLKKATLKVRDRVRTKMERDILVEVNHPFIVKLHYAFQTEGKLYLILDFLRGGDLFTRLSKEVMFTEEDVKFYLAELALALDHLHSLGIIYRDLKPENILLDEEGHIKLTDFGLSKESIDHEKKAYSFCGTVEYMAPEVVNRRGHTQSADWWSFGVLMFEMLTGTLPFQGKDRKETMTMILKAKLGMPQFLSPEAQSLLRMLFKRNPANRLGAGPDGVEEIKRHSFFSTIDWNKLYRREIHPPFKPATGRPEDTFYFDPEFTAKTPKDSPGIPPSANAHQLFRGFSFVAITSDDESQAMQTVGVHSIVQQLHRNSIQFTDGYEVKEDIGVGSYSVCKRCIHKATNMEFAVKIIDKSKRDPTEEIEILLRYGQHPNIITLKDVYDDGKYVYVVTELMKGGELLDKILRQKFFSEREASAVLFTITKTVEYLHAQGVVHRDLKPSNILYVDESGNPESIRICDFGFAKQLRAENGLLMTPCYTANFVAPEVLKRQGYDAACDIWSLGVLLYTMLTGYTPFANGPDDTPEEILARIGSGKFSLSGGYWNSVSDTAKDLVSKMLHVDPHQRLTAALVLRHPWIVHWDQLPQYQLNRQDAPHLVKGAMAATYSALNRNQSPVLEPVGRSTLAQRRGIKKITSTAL

## CC[C@@H]1[C@H](F)C(=O)N[C@@H]1COc1nccc2cc(C(N)=O)c(OC)cc12 [ZIMLOVISERTIB]
[1]
  % of inhibition: 5.4%

## COCC(=O)NC/C=C/c1ccc2ncnc(Nc3ccc(Oc4ccc(C)nc4)c(C)c3)c2c1 [CP-724714]
[2]
  % of control: 95%

## CCC(=O)N1CCN(c2ccc(-n3c(=O)ccc4cnc5ccc(-c6cnc7ccccc7c6)cc5c43)cc2C(F)(F)F)CC1
[3]
  % of control: 30%

## CCn1c(-c2nc3cc(C(=O)N4CCCC(N)C4)ccc3n2C)cc2ccccc21 (stereo unspecified)
[4]
  pXC50: < 4.8 M

## CNC(=O)Nc1ccc(-c2nc(N3CC4CCC(C3)O4)c3cnn(C4CCC5(CC4)OCCO5)c3n2)cc1
[5]
  % of inhibition: 3%

## Cn1cc(-n2cnc3c(NCc4nc5cc(Cl)c(Cl)cc5[nH]4)nc(N4CCOCC4)nc32)cn1
[6]
  % of control: 7.02%
